Consider nine compounds from patent US9085578B2, “Heterocyclic compound” (Takeda Pharmaceutical Company Limited, priority 2012, dated 2015).

In this assay the target is T1, Tyk2 (Homo sapiens, UniProt P29597).
T1 construct: purchased Invitrogen
Description: Tyk2 enzyme inhibition test (LANCE method). The class given is biochemical. The note with it: 1 uM test compound, ULight-JAK1 peptide substrate, well without enzyme = 100% inhibition, read-out: Tyk2 enzyme inhibitory activity (%, 1 uM). Here is the method: Tyk2 enzyme inhibitory activity of test compounds was measured by LANCE method (PerkinElmer). First, a test compound diluted with assay buffer (50 mM HEPES (pH=7.5), 10 mM MgCl2, 1 mM EGTA, 2 mM DTT, 0.01% Tween20, 0.01% BSA) was added to 384-well plate at 2 μL each. Then, a Tyk2 (Invitrogen) solution and a fluorescence-labeled peptide substrate (ULight-JAK1, PerkinElmer) solution diluted with assay buffer at 375 ng/mL and 300 nM, respectively were added at 2 μL each. Then, enzyme reaction was started by adding 2 μL each of ATP solution prepared with assay buffer at 30 μM. After the reaction at room temperature for 1 hr, Detection Buffer (PerkinElmer) prepared to be 20 mM EDTA, 4 nM europium-labeled anti-phosphotyrosine antibody (PerkinElmer) was added at 6 μL each. After standing at room temperature for 1 hr, fluorescence intensity (excitation wavelength 340 nm, fluorescence wavelength 665 nm, delay time 100 microsecond) was measured by a plate reader, Envision (PerkinElmer). The inhibitory activity of each compound was calculated as relative value where fluorescence intensity of a well without enzyme is considered as 100% inhibition.
For orientation: TR-FRET usually uses a lanthanide donor and a delayed reading to cut background.

T1 sequence (P29597 whole entry): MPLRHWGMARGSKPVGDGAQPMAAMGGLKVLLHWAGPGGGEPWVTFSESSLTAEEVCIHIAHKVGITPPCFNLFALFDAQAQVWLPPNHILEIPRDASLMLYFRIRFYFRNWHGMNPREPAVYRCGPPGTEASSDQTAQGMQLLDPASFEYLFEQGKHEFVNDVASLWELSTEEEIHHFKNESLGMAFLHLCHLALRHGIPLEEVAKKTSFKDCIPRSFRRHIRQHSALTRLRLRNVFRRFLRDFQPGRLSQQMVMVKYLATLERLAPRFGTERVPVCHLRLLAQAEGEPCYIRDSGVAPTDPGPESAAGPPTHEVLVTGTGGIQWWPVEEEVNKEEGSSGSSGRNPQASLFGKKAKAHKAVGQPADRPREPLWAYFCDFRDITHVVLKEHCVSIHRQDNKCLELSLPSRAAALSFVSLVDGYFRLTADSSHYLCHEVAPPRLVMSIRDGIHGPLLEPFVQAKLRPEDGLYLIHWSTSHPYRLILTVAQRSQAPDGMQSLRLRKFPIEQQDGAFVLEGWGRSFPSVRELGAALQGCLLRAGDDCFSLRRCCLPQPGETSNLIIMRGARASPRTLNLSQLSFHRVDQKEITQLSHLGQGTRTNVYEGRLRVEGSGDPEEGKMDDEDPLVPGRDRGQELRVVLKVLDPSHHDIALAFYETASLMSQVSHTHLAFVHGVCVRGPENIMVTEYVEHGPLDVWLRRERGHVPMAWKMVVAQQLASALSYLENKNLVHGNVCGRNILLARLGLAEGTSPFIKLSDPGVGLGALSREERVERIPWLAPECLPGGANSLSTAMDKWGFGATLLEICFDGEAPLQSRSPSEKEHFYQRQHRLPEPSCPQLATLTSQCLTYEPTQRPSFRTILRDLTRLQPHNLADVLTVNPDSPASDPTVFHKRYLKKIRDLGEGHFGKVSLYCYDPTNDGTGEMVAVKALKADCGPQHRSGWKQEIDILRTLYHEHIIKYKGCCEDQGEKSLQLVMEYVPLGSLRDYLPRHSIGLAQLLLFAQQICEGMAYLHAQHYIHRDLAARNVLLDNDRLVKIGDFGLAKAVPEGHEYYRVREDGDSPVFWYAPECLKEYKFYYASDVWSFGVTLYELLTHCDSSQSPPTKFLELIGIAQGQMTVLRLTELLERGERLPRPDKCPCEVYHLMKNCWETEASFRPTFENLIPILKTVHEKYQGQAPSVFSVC

Take `CC1CCCCC1n1cc(-c2ccn(C)n2)c2[nH]nc(N)c2c1=O` (stereo not drawn) [Example 14, 3-amino-5-(2-methylcyclohexyl)-7-(1-methyl-1H-pyrazol-3-yl)-1,5-dihydro-4H-pyrazolo[4,3-c]pyridin-4-one]: the inhibition at 1 µM was found to be 98%.
In the case of `N#Cc1cc2[nH]nc(N)c2c(=O)n1-c1ccccc1Cl` [Example 16, 3-amino-5-(2-chlorophenyl)-4-oxo-4,5-dihydro-1H-pyrazolo[4,3-c]pyridine-6-carbonitrile] it was 82%; in that of `Cc1ccccc1-n1cc(Br)c2[nH]nc(N)c2c1=O` [Example 1, 3-amino-7-bromo-5-(2-methylphenyl)-1,5-dihydro-4H-pyrazolo[4,3-c]pyridin-4-one], 40%.
The figure for `Nc1n[nH]c2c(-c3csc(CN4CCCC4)c3)cn(-c3ccccc3Cl)c(=O)c12` [Example 38, 3-amino-5-(2-chlorophenyl)-7-(5-(pyrrolidin-1-ylmethyl)-3-thienyl)-1,5-dihydro-4H-pyrazolo[4,3-c]pyridin-4-one] is 95%; for `Nc1n[nH]c2c(-c3ccccn3)cn(-c3ccccc3Cl)c(=O)c12` [Example 24, 3-amino-5-(2-chlorophenyl)-7-(pyridin-2-yl)-1,5-dihydro-4H-pyrazolo[4,3-c]pyridin-4-one] it is 98%; for `N#Cc1ccnc(-c2cn(-c3ccccc3Cl)c(=O)c3c(N)n[nH]c23)c1` [Example 28, 2-(3-amino-5-(2-chlorophenyl)-4-oxo-4,5-dihydro-1H-pyrazolo[4,3-c]pyridin-7-yl)isonicotinonitrile] it is 100%.
The figure for `Cn1ccc(-c2cn(-c3c(F)cccc3F)c(=O)c3c(N)n[nH]c23)n1` [Example 15, 3-amino-5-(2,6-difluorophenyl)-7-(1-methyl-1H-pyrazol-3-yl)-1,5-dihydro-4H-pyrazolo[4,3-c]pyridin-4-one] is 100%; for `Cn1ccc(-c2cn(-c3ccccc3C(F)(F)F)c(=O)c3c(N)n[nH]c23)n1` [Example 43, 3-amino-7-(1-methyl-1H-pyrazol-3-yl)-5-(2-(trifluoromethyl)phenyl)-1,5-dihydro-4H-pyrazolo[4,3-c] pyridin-4-one] it is 92%; for `CC(C)C(C)n1cc(-c2ccn(C)n2)c2[nH]nc(N)c2c1=O` (stereo not drawn) [Example 13, 3-amino-5-(3-methylbutan-2-yl)-7-(1-methyl-1H-pyrazol-3-yl)-1,5-dihydro-4H-pyrazolo[4,3-c]pyridin-4-one] it is 98%.
